# Data as given in patent US11478526B2, “Methods of reducing neuroinflammation or toxicity induced by amyloid beta (abeta) using glucocorticoid induced leucine zipper (GILZ) analog peptides” (INDIANA UNIVERSITY RESEARCH AND TECHNOLOGY CORPORATION, priority 2016, dated 2022).
# Key:
# HFNC = experiment: Morphology of HFNC under inverted bright field microscope; format: cell-based, human
# Aβ1-42 exposed HFB cells = experiment: Cytokines in culture medium of Aβ1-42 exposed HFB; format: cell-based, human; details: 50 μM peptide
# Description: Fetal brain materials (10-20 g) were shipped overnight in chilled Hibernate-E medium (Invitrogen) supplemented with B27 (Invitrogen), GlutaMAX (Invitrogen) and antibiotic-antimycotic solution (Cellgro). HFB were prepared and cultured as described. Briefly, cells were cultured in Neurobasal medium (Invitrogen) without phenol red supplemented with 1×B27, […] GlutaMAX, 1×antibiotic cocktail, 5 ng/mL recombinant fibroblast growth factor 2 (bFGF) (Invitrogen), and 2 μL/mL Normocin (InVivoGen, San Diego, Calif., USA). Cells were counted and seeded onto poly-D-lysine (Sigma-Aldrich) coated 24-well plates (Corning, Lowell, Mass., USA) at 1.5×10^5 cells per well and maintained at 37° C. in a 5% CO2 incubator. Half media changes were performed every 4th day of culture and morphology was monitored via phase contrast microscopy. Culture medium was removed from cells on day 17 (DIV17) and replaced with Neurobasal medium with B27. Appropriate wells were then added vehicle, or carrier peptide or individual GA or control peptide (at 50 μM) for 30 min followed by exposure to Aβ1-42 at a final concentration of 10 μM/well and incubated for 4 hours or 48 hours. Cells and conditioned media were harvested and stored for further analysis. Relative ATP concentration was measured using the CTG kit (Promega). Data is presented as ΔRLU=RLU of Aβ1-42 exposed cells-RLU unexposed cells. Conditioned media collected were assessed for specific cytokines using the OptEIA kits (BD Biosciences). Nuclear and cytoplasmic fractions were extracted using the CelLytic™ NuCLEAR™ Extraction Kit (Sigma) following manufacturer's protocol. Five microgram of nuclear extracts was incubated in a 96-well plate coated with oligonucleotides containing the NF-κβ consensus nucleotide sequence (5′-[…]-3′) (SEQ ID NO: 30). The activated NF-κβ bound to DNA was detected by anti-p65 antibody followed by a peroxidase coupled secondary antibody and substrate using the TransAM kit protocol (Active Motif). Nuclear extracts of Raji cells was used as the positive control.
# Select PGA protects against Aβ1-42 induced toxicity, prevents p65 activation and cytokine response in human fetal brain (HFB) cells. […] Viability in terms of relative luminescent Units (RLU) was quantified using a Glowmax luminometer (Promega, Wis.). Data are presented as ARLU=RLU of Aβ1-42 exposed cells-RLU of unexposed cells. […] The mean RLU of vehicle treated HFB varied between 7352.75+/−1265.2 and 16157.5+/−4950. […] The culture supernatants were assessed for cytokines by ELISA (R&D Systems, Minn.). […] Primary HFB cultured similarly and harvested at the end of 4 hours was assessed for nuclear p65 using TransAM kit for NF-κB p65 (Active Motif, Calif.).
# [1] = tested on: LPS induced neuroinflammation; experiment: LPS induced neuroinflammation: real time PCR of brain tissue; format: in vivo, mouse; details: 25 mg/kg i.v. alternate days, day 7
# Description: (§1) Animals and lipopolysaccharide induced neuroinflammation: Male C57/6J mice weighing 32 to 37 grams were housed five per cage at a temperature of 22±2° C. with 12 hour light/12 hour dark cycles with free access to laboratory food and water. Lipopolysaccharides (LPS) from Escherichia coli 026:B6, =10,000 EU/mg, purified by phenol extraction was purchased from Sigma (Sigma Aldrich, Mo., USA). The mice were randomly divided into seven groups: LPS, LPS+GA-1 or GA-2 or CP-1 or CP-2 or CP-3 or TAT. The LPS was administered intraperitoneally at […] in 100 μl of sterile saline followed by corn oil in the morning daily for six days. The GA or CP was administered intravenously at 25 mg/kg in 100 μl of sterile saline on alternate days. Additional control group included mice receiving saline alone. All animals were sacrificed on day 7.
# Real time polymerase chain reaction. Total cellular RNA was isolated from each brain tissue using Qiagen kit (Invitrogen, Carlsbad, Calif.) following manufacturer's protocol and reverse transcribed using iScript cDNA synthesis kit (Biorad, Calif.). Equal amount of cDNA measured by the Nanodrop (ThermoFisher Scientific, Waltham, USA) was used for amplification of IL-1β, IL-12, CD14, BclXL and Bcl2. Real time PCR was performed using SYBR green/ROX qPCR master mix (SA Biosciences, Frederick, Md.) on the ABI Prism 7000 sequence detection system (Applied Biosystem, Foster City, Calif., USA). Each reaction contains 2×12.5 μl of master mix, 1 μl of 10 μM of primers and 50 ng of the cDNA, to a total volume of 25 μl. The thermal cycling conditions included an initial denaturation step at 50° C. for 2 min, 95° C. for 3 min, 39 cycles at 95° C. for 30 s, annealing temperature at 62° C. for 30 s and extension at 72° C. for 30 s.
# The gene specific threshold cycle (Ct) for each sample (ΔCt) was corrected by subtracting the Ct for the housekeeping gene β-actin. Untreated controls were chosen as the reference samples. The ΔCt for all experimental samples was subtracted by the ΔCt for the control samples (ΔΔCt).The difference in each gene specific threshold between the sample from vehicle treated and GA or CP treated cells was determined to obtain the relative change in the specific mRNA. The magnitude of change in the mRNA was expressed as 2^−ΔΔCt. Each measurement of a sample was performed in duplicates.
# [2] = tested on: Phospho-NF-κB p65 (Ser536); experiment: LPS induced neuroinflammation: Phospho-NF-κB p65 ELISA of brain homogenates; format: in vivo, mouse; details: 25 mg/kg i.v. alternate days, day 7
# Description: as §1, with “All animals were sacrificed on day 7.” left out
# NF-κB assay: Brain homogenates processed as above were assessed by the Cell Signaling Technology PathScan® Phospho-NF-κB p65 (Ser^536) Sandwich ELISA kit following manufacturer's protocol (Cell Signaling Technology, Boston, Mass.). […] After extensive washing, the captured phospho-NF-κB p65 protein was detected by incubating with horse radish peroxidase (HRP) conjugated NF-κB p65 rabbit mAb followed by washing and color development using the TMB substrate. Absorbance at 450 nm was measured using a microplate reader (Model 680; Bio-Rad Laboratories, Hercules, Calif., USA). […]
Substance,morphology of HFNC (HFNC),relative concentration of IL-6 in culture medium (Aβ1-42 exposed HFB cells),relative concentration of IL-10 in culture medium (Aβ1-42 exposed HFB cells),relative expression of BCl2 in brain tissues [1],relative expression of BclXL in brain tissues [1],steady-state mRNA for IL-1β in brain tissues [1],absorbance suggestive of activated p65 in brain protein extract [2],relative expression of CD14 mRNA in brain tissues [1]
Ac-EPAPLAPYG-NH2 [PGA-2],did not affect the morphology,–,–,–,–,–,–,–
Ac-EPAPESPQV-NH2 [PGA-4],did not affect the morphology,–,–,–,–,–,–,–
Ac-EPAPESPQV-NH2 [GA-2],–,significantly lower,significantly lower,1.9+/−0.9,0.25+/−0.4,decreased levels,0.12+/−0.07,–
Ac-EPAPLAPYG-NH2 [GA-1],–,significantly lower,significantly lower,1.25+/−0.5,0.32+/−0.15,decreased levels,0.098+/−0.03,0.48+/−0.1
